Laboratory results from US9771345B2, “Coferons and methods of making and using them” (Cornell University, priority 2009, dated 2017).
Where a name gives a salt, the structure may show the parent alone.

target: T1, recombinant human tryptase, beta, from lung (Homo sapiens, UniProt P20231); experiment: Inhibition of tryptase activity by coferons (Boc-Gln-Ala-Arg-AMC fluorescence); type: biochemical; details: coferon monomer alone; 1 nM tryptase
T1 construct: purchased Promega or Enzo Life Sciences G5631 or BML-SE418
Method: Stock solutions of recombinant human tryptase, beta, from lung (Promega: catalog number G5631, or Enzo Life Sciences: catalog number BML-SE418) were made at 30 μM, in solution with 50 μM heparin sulfate and 500 mM NaCl. Coferon tryptase inhibitor stock solutions were made at 50 mM in DMSO. Drug plates were made at 5× the final concentration in assay buffer (50 mM HEPES, 150 mM NaCl, 100 μM EDTA, pH 7.4, 0.02% Tween-20). A final concentration of 1 nM tryptase was used. When required, drugs were diluted in assay buffer immediately before use in 10-fold serial dilutions. […] The Softmax Pro (Molecular Devices) and Graphpad prism software were used to determine Vmax, and concentration-response curve IC50s, respectively.

T1 sequence (P20231 31-275): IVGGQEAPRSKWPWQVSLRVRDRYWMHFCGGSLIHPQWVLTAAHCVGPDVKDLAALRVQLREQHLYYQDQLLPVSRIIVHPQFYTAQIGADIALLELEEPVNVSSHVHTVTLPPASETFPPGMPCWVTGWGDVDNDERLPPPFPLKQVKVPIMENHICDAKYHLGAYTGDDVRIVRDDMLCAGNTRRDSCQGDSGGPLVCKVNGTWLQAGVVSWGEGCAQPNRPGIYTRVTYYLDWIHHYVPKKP

Row | IC50 | Structure (SMILES)
1 | 15 µM | NCc1cccc(C2CCN(C(=O)c3cccc4ccc(B(O)O)cc34)CC2)c1 [Example 35, (8-(4-(3-(aminomethyl)phenyl)piperidine-1-carbonyl)naphthalen-2-yl)boronic acid]
2 | 0.48 µM | NCc1cccc(C2CCN(C(=O)c3cccc4cc(B(O)O)ccc34)CC2)c1 [Example 34, (5-(4-(3-(amino methyl)phenyl)piperidine-1-carbonyl)napthalen-2-yl)boronic acid]
3 | 1.2 µM | NCc1cccc(C2CCN(C(=O)c3cccc4cc(O)c(O)cc34)CC2)c1 [Example 40, (4-(3-(aminomethyl)phenyl)piperidin-1-yl)(6,7-dihydroxynaphthalen-1-yl)methanone]

Further lines, the compound ahead of its results:

Row | Structure (SMILES) | IC50
4 | NCc1cccc(C2CCN(C(=O)/C=C/c3ccc(O)c(O)c3)CC2)c1 [Example 39, (E)-1-(4-(3-(aminomethyl)phenyl)piperidin-1-yl)-3-(3,4-dihydroxyphenyl)prop-2-en-1-one hydrochloride] | 4.3 µM
5 | NCc1cccc(C2CCN(C(=O)c3cccc(OCC(=O)N4C[C@@H](O)[C@@H](O)C4)c3)CC2)c1 [Example 50, 2-(3-(4-(3-(aminomethyl)phenyl)piperidine-1-carbonyl)phenoxy)-1-((3S,4R)-3,4-dihydroxypyrrolidin-1-yl)ethanone] | 7.5 µM
6 | NCc1cccc(C2CCN(C(=O)Cc3ccc(B(O)O)cc3)CC2)c1 [Example 37, (4-(2-(4-(3-(aminomethyl)phenyl)piperidin-1-yl)-2-oxoethyl)phenyl)boronic acid] | 1.05 µM
7 | NCc1cccc(C2CCN(C(=O)Cc3cccc(B(O)O)c3)CC2)c1 [Example 36, (3-(2-(4-(3-(aminomethyl)phenyl)piperidin-1-yl)-2-oxoethyl)phenyl)boronic acid] | 8.15 µM
